Results published in patent US11090304B2 (Amgen Inc., priority 2018, dated 2021).
Read-outs that look alike come from different tables or passages of the source.

Columns and labels:
[1] = biological target: GDP-bound KRAS protein (aa 1-169), containing both G12C and C118A amino acid substitutions (Homo sapiens, UniProt P01116, C118A/G12C); assay: Coupled nucleotide exchange assay (SOS-mediated, AlphaScreen); format: biochemical; conditions: for Coupled exchange IC50 (5 min): 5 min compound pre-incubation; for Coupled exchange IC50 (2 h): 2 h compound pre-incubation
Sequence of GDP-bound KRAS protein (aa 1-169), containing both G12C and C118A amino acid substitutions (P01116 1-169 isoform P01116-2 G12C/C118A): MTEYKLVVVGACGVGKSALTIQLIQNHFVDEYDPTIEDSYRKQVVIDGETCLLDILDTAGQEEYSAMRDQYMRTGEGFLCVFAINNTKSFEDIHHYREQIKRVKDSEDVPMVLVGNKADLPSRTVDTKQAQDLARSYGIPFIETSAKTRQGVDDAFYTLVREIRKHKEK

[2] = test system: Phosphorylation of ERK1/2 in MIA PaCa-2 cells; assay: Phospho-ERK1/2 MSD assay in MIA PaCa-2 cells; format: cell-based
How it was run: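 MIA PaCa-2 or A549 cells were treated with a compound dose-response titration for 2 or 4 h at 37 °C, then stimulated with 10 ng/mL EGF for 10 min. Phospho-ERK1/2 in RIPA lysates was measured by MSD whole-cell lysate immunoassay, and IC50 came from a 4-parameter logistic fit.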

[3] = test system: Phosphorylation of ERK1/2 in A549 cells; assay: Phospho-ERK1/2 MSD assay in A549 cells; format: cell-based; conditions: Homo sapiens
Procedure: For compounds in Table 89, the following assay conditions were employed:
Phospho-ERK1/2 MSD Assay:
Sixteen hours prior to compound treatment, MIA PaCa-2 or A549 cells were seeded in 96-well cell culture plates at a density of 25,000 cells/well and incubated at 37° C., 5% CO2. A compound dose-response titration was diluted in growth media, added to appropriate wells of a cell culture plate, and then incubated at 37° C., 5% CO2 for 2 or 4 hours (see Table 15). Following compound treatment, cells were stimulated with 10 ng/mL EGF (Roche 11376454001) for 10 min, washed with ice-cold Dulbecco's phosphate-buffered saline, no Ca^2+ or Mg^2+ (ThermoFisher Scientific 14190144), and then lysed in RIPA buffer (50 mM Tris-HCl pH 7.5, 1% Igepal, 0.5% sodium deoxycholate, 150 mM NaCl, and 0.5% sodium dodecyl sulfate) containing protease inhibitors (Roche 4693132001) and phosphatase inhibitors (Roche 4906837001). Phosphorylation of ERK1/2 in compound-treated lysates was assayed using Phospho-ERK1/2 Whole Cell Lysate kits (Meso Scale Discovery K151DWD) according to the manufacturer's protocol. Assay plates were read on a Meso Scale Discovery Sector Imager 6000, and data were analyzed using a 4-parameter logistic model to calculate IC50 values.

[4] = Homo sapiens, MIA PaCa-2, 2 h, read-out: p-ERK IC50 (2 h; MIA PaCa-2), 2 h compound treatment
[5] = A549, 2 h, read-out: p-ERK IC50 (2 h; A549), 2 h compound treatment
[6] = A549, 4 h, read-out: p-ERK IC50 (4 h; A549), 4 h compound treatment
[7] = read-out: p-ERK IC50 (2 h; MIA PaCa-2), 2 h compound treatment
[8] = Homo sapiens, MIA PaCa-2, 4 h, read-out: p-ERK IC50 (4 h; MIA PaCa-2), 4 h compound treatment

Coupled exchange IC50 (5 min) [1]	Coupled exchange IC50 (2 h) [1]	IC50 [2, 4]	IC50 ([2]; read-out: p-ERK IC50 (4 h; MIA PaCa-2), 4 h compound treatment)	IC50 [3, 5]	IC50 [3, 6]	IC50 [2, 7]	IC50 [2, 8]	SMILES
1.66 µM	0.163 µM	1060 nM	859 nM	≥ 10 µM	≥ 100 µM	–	–	C=CC(=O)N1CCN(c2nc(=O)n(-c3ccccc3C(C)C)c3cc(Br)c(Cl)cc23)[C@@H](C)C1 (single isomer, unassigned) [Example 9-17-2]
0.302 | nda μM	–	–	–	≥ 10 µM	–	76 nM	–	C=CC(=O)N1CCN(c2nc(=O)n(-c3cccnc3C(C)C)c3nc(-c4ccccc4F)c(Cl)cc23)[C@@H](C)C1 (single isomer, unassigned) [Example 54-9-1]
0.02 | nda μM	–	55 nM	–	≥ 10 µM	–	–	–	C=CC(=O)N1CCN(c2nc(=O)n(-c3c(C)ncnc3C(C)C)c3nc(-c4ccccc4F)c(Cl)cc23)[C@@H](C)C1 (single isomer, unassigned) [Example 55-13-2]
0.039 | nda μM	–	123 nM	–	≥ 10 µM	–	–	–	C=CC(=O)N1CCN(c2nc(=O)n(-c3c(C)cc(N(C)C)cc3C(C)C)c3nc(-c4ccccc4F)c(Cl)cc23)[C@@H](C)C1 (single isomer, unassigned) [Example 55-16-2]
0.062 | nda μM	–	77 nM	–	≥ 10 µM	–	–	–	C=CC(=O)N1CCN(c2nc(=O)n(-c3nccnc3C(C)(C)C)c3nc(-c4c(O)cccc4F)c(Cl)cc23)[C@@H](C)C1 (single isomer, unassigned) [Example 55-23-2]
0.208 | nda μM	–	–	–	≥ 10 µM	–	99 nM	–	C=CC(=O)N1CCN(c2nc(=O)n(-c3ccccc3C(C)C)c3nc(-c4c(O)cccc4F)c(F)cc23)[C@@H](C)C1 (single isomer, unassigned) [Example 57-6-2]
0.384 | nda μM	–	236 nM	–	≥ 10 µM	–	–	–	C=CC(=O)N1CCN(c2nc(=O)n(-c3ccccc3C(C)C)c3nc(-c4ccccc4F)c(F)cc23)[C@@H](C)C1 (single isomer, unassigned) [Example 57-7-2]
0.604 | nda μM	–	1020 nM	–	≥ 10 µM	–	–	–	C=CC(=O)N1CCN(c2nc(=O)n(-c3ccccc3C(C)C)c3nc(N4CCCCC4)c(Cl)cc23)[C@@H](C)C1 (single isomer, unassigned) [Example 69-1-2]
0.029 | nda μM	–	27 nM	–	≥ 10 µM	–	–	–	C=CC(=O)N1C[C@H](C)N(c2nc(=O)n(-c3c(C)ccnc3C(C)C)c3nc(-c4c(O)cccc4F)c(F)cc23)[C@@H](C)C1 (single isomer, unassigned) [Example 75-3]
0.076 | nda μM	–	102 nM	–	≥ 10 µM	–	–	–	C=CC(=O)N1CCN(c2nc(=O)n(-c3c(C)ccnc3C(C)C)c3nc(-c4ccccc4F)c(Cl)nc23)[C@@H](C)C1 (single isomer, unassigned) [Example 111-1]
0.653 µM	0.117 µM	327 nM	–	–	≥ 100 µM	–	143 nM	C=CC(=O)N1CCN(c2nc(=O)n(-c3c(C)cccc3C)c3nc(-c4c(O)cccc4F)c(Cl)cc23)CC1 [Example 8-8, 6-chloro-1-(2,6-dimethylphenyl)-7-(2-fluoro-6-hydroxyphenyl)-4-(4-(2-propenoyl)-1-piperazinyl)pyrido[2,3-d]pyrimidin-2(1H)-one]
–	nda | 0.781 μM	–	–	–	≥ 100 µM	–	8580 nM	C=CC(=O)N1CCN(c2nc(=O)n(C(CC)CC)c3nc(Cl)c(Cl)cc23)[C@@H](C)C1 [Example 54-3, 6,7-dichloro-4-((2S)-2-methyl-4-(2-propenoyl)-1-piperazinyl)-1-(3-pentanyl) pyrido[2,3-d]pyrimidin-2(1H)-one]
0.445 | nda μM	–	554 nM	–	≥ 10 µM	–	–	–	C=CC(=O)N1CCN(c2nc(=O)n(CC3(C(F)(F)F)CC3)c3nc(-c4c(O)cccc4F)c(Cl)cc23)[C@@H](C)C1 [Example 54-5, 6-chloro-7-(2-fluoro-6-hydroxyphenyl)-4-((2S)-2-methyl-4-(2-propenoyl)-1-piperazinyl)-1-((1-(trifluoromethyl)cyclopropyl)methyl)pyrido [2,3-d]pyrimidin-2(1H)-one]
0.306 | nda μM	–	528 nM	–	≥ 10 µM	–	–	–	C=CC(=O)N1CCN(c2nc(=O)n(CC3(C)CC3)c3nc(-c4c(O)cccc4F)c(Cl)cc23)[C@@H](C)C1 [Example 54-6, 6-chloro-7-(2-fluoro~ 6-hydroxyphenyl)-1-((1-methylcyclopropyl)methyl)-4-((2S)-2-methyl-4-(2-propenoyl)-1-piperazinyl) pyrido[2,3-d]pyrimidin-2(1H)-one]
–	–	–	–	–	≥ 100 µM	–	5640 nM	C=CC(=O)N1CCN(c2nc(=O)n(-c3ccccc3C(C)C)c3nc(Cl)c(Cl)cc23)CC1 [Example 54-80, 6,7-dichloro-1-(2-(2-propanyl)phenyl)-4-(4-(2-propenoyl)-1-piperazinyl) pyrido[2,3-d]pyrimidin-2(1H)-one]
–	–	54 nM	–	≥ 100 µM	≥ 100 µM	–	84 nM	C=CC(=O)N1CCN(c2nc(=O)n(-c3ccccc3C(C)C)c3nc(-c4ccccc4Cl)c(Cl)cc23)[C@@H](C)C1 [Example 54-84, 6-chloro-7-(2-chlorophenyl)-4-((2S)-2-methyl-4-(2-propenoyl)-1-piperazinyl)-1-(2-(2-propanyl)phenyl)pyrido [2,3-d]pyrimidin-2(1H)-one]
–	–	160 nM	–	≥ 100 µM	–	–	–	C=CC(=O)N1CCN(c2nc(=O)n(-c3ccccc3C(C)C)c3nc(-c4ccc(F)cc4F)c(Cl)cc23)[C@@H](C)C1 [Example 54-85, 6-chloro-7-(2,4-difluorophenyl)-4-((2S)-2-methyl-4-(2-propenoyl)-1-piperazinyl)-1-(2-(2-propanyl)phenyl)pyrido [2,3-d]pyrimidin-2(1H)-one]
–	–	90 nM	–	≥ 33.3 µM	–	–	–	C=CC(=O)N1CCN(c2nc(=O)n(-c3ccccc3C(C)C)c3nc(-c4ccccc4F)c(Cl)cc23)[C@@H](C)C1 [Example 54-86, 6-chloro-7-(2-fluorophenyl)-4-((2S)-2-methyl-4-(2-propenoyl)-1-piperazinyl)-1-(2-(2-propanyl)phenyl)pyrido [2,3-d]pyrimidin-2(1H)-one]
–	–	–	–	–	37.9 µM	–	4490 nM	C=CC(=O)N1CCN(c2nc(=O)n(-c3ccccc3C(C)C)c3nc(Oc4cccc(F)c4)c(Cl)cc23)CC1 [Example 60-23, 6-chloro-7-(3-fluorophenoxy)-1-(2-(2-propanyl)phenyl)-4-(4-(2-propenoyl)-1-piperazinyl)pyrido[2,3-d]pyrimidin-2(1H)-one]
–	–	–	–	–	46.2 µM	–	10700 nM	C=CC(=O)N1CCN(c2nc(=O)n(C(C(C)C)C(C)C)c3nc(Cl)c(Cl)cc23)CC1 [Example 60-35, 6,7-dichloro-1-(2,4-dimethyl-3-pentanyl)-4-(4-(2-propenoyl)-1-piperazinyl)pyrido[2,3-d]pyrimidin-2(1H)-one]
–	–	116 nM	–	≥ 100 µM	–	–	–	C=CC(=O)N1CCN(c2nc(=O)n(-c3ccccc3C(C)C)c3cc(-c4ccccc4F)c(Cl)cc23)[C@@H](C)C1 [Example 62-1, (S)-4-(4-acryloyl-2-methylpiperazin-1-yl)-6-chloro-7-(2-fluorophenyl)-1-(2-isopropylphenyl)quinazolin-2(1H)-one]
–	–	–	–	–	64.8 µM	–	1860 nM	C=CC(=O)N1CCN(c2nc(=O)n(-c3ccccc3C(C)C)c3nc(N4CCCCC4)c(Cl)cc23)[C@@H](C)C1 [Example 69-1, 6-Chloro-4-((2S)-2-methyl-4-(2-propenoyl)-1-piperazinyl)-7-(1-piperidinyl)-1-(2-(2-propanyl)phenyl)pyrido[2,3-d]pyrimidin-2(1H)-one]
–	–	232 nM	–	–	89.4 µM	–	243 nM	C=CC(=O)N1CCN(c2nc(=O)n(-c3ccccc3C(C)C)c3cc(-c4ccccc4F)c(Cl)cc23)CC1 [Example 88, 6-Chloro-7-(2-fluorophenyl)-1-(2-(2-propanyl)phenyl)-4-(4-(2-propenoyl)-1-piperazinyl)-2(1H)-quinazolinone]
–	–	687 nM	–	≥ 10 µM	≥ 11.1 µM	–	294 nM	C=CC(=O)N1CCN(c2nc(=O)n(CC(C)(C)C)c3cc(-c4c(O)cccc4F)c(Cl)cc23)CC1 [Example 89, 6-Chloro-1-(2,2-dimethylpropyl)-7-(2-fluoro-6-hydroxyphenyl)-4-(4-(2-propenoyl)-1-piperazinyl)-2(1H)-quinazolinone]
